Results published in US9321787B2, “Carboxylic acid derivatives having an oxazolo[5,4-d]pyrimidine ring” (SANOFI, priority 2011, dated 2016).

Target: T1, human Edg-1 receptor (Homo sapiens, UniProt P21453)
T1 construct: FLAG (N); expressed in transfected cells; membrane preparation
Test: GTP-γ-S assay using human Edg-1 receptors (scintillation proximity assay, CHO Flp-In membrane preparation)
Assay type: biochemical
Settings: test compound at 10 μM; high control 10 μM S1P = 100% activation; membranes of CHO Flp-In cells overexpressing human Edg-1; read-out: % activation (Edg-1 receptor activation in percent of the activation by 10 μM S1P)
Description: A) GTP-γ-S Assay Using Human Edg-1 Receptors
In order to determine the Edg-1 receptor activation by the compounds of the invention, a GTP-γ-S (GTP-γ-S=guanosine 5′-[thio]triphosphate) assay for G-protein coupled receptor binding based on the scintillation proximity assay principle was used, employing a cell membrane preparation from a CHO Flp-In cell line which constitutively overexpresses the human Edg-1 receptor.
A membrane preparation was obtained by standard methods from the aforedescribed CHO Flp-In cell line constitutively overexpressing the human Edg-1 receptor. Briefly, the cryopreserved cells were taken in culture and grown until confluency in T175 cell culture flasks (Becton Dickinson, cat. no. 35 5001). Cell culture was stopped by washing with calcium-free phosphate-buffered saline (PBS; Gibco, cat. no. 14190), and cells were harvested with a rubber-policeman in 4° C. cold and calcium-free PBS supplemented with a protease inhibitor cocktail (complete protease inhibitor; Roche, cat. no. 1697498; 1 tablet per 50 ml) and subsequently centrifuged at 4° C. for 15 min at 1100×g (Heraeus Minifuge T). For cell lysis, the pellet was resuspended in a 4° C. cold hypotonic buffer consisting of 5 mM HEPES (Sigma-Aldrich, cat. no. H-0981), 1 mM EDTA (disodium salt; Merck, cat. no. 8418) supplemented with protease inhibitor cocktail (as above) in which cells were stored for another 15 min on ice. After lysis, cells were centrifuged at 4° C. for 10 min at 400×g (Heraeus Minifuge T). The pellet was disrupted in a Dounce homogenizer, diluted with the supernatant of the previous centrifugation and subsequently centrifuged at 4° C. for 10 min at 500×g (Heraeus Minifuge T) in order to separate nuclei and still intact cells from the membranes mainly present in the supernatant. The supernatant was then diluted in hypotonic buffer and centrifuged (Beckmann, Avanti J251) at approximately 18600×g for 2 h at 4° C. After centrifugation, the membrane pellet was resuspended in a storing buffer consisting of 20 mM HEPES; 150 mM NaCl (Merck, cat. no. 6400), 1 mM EDTA (as above) supplemented with protease inhibitor cocktail (as above). The membrane preparation was aliquoted and stored at −80° C. Protein concentration of the membrane preparation was determined in a sample by means of a commercial protein assay (Bio-Rad, DC Protein Assay, cat. nos. 500-0113, 500-0114, 500-0115).
The Edg-1 membrane preparation obtained in (b) was employed in a commercially available scintillation proximity assay (SPA) kit for G-protein coupled receptor binding from Amersham Biosciences/GE Healthcare (code RPNQ0210), in which ligand-induced binding of ^35S-radiolabeled GTP-γ-S to the receptor-containing membrane, which is bound to scintillation beads, stimulates the emission of light and allows the quantification of the in vitro activity of the Edg-1 agonistic compound. The assay was performed on a 96-well plate substantially according to the manufacturer's instructions. Before starting the experiments, scintillation beads were suspended in a reconstitution buffer consisting of Tris-HCl (pH 7.4) supplemented with 0.1% (w/v) sodium azide and subsequently diluted on ice with assay buffer (consisting of 20 mM HEPES, 100 mM NaCl, 1 mM EDTA (as above), 1 mM dithiothreitol (DTT), adjusted to pH 7.4) to a final bead concentration of 30 mg/ml.
Wells were charged with 10 μl of the specified assay buffer, 10 μl of a 100 μM guanosine diphosphate (GDP) solution, and 10 μl of a solution of the test compound in assay buffer/dimethyl sulfoxide resulting in a final concentration of the test compound of 10 μM. For the high controls, 10 μl of a solution of sphingosine-1-phosphate (S1P; Sigma, cat. no. S-9666), resulting in a final S1P concentration of 10 μM, and for the low controls 10 μl of assay buffer, was added into the respective wells instead of the solution of the test compound. All wells contained equivalent amounts of dimethyl sulfoxide. […]

T1 sequence (P21453 whole entry): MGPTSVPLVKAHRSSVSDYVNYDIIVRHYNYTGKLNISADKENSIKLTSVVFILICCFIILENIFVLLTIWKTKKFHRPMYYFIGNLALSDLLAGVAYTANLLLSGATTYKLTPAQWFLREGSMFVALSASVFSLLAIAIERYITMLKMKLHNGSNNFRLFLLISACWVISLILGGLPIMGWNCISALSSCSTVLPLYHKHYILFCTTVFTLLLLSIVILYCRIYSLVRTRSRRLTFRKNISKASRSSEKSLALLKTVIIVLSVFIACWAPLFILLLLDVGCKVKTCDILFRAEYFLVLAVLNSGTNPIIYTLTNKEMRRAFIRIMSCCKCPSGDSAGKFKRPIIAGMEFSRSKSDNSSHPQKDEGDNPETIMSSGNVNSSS

activation at 10 µM	SMILES
94%	CCCc1nc(Oc2cc(F)ccc2F)nc2oc(-c3cc(C)c(OCC(=O)O)c(C)c3)nc12 [Example 1, {4-[5-(2,5-Difluorophenoxy)-7-propyloxazolo[5,4-d]pyrimidin-2-yl]-2,6-dimethylphenoxy}acetic acid]
97%	CCCc1nc(OCCC(F)(F)F)nc2oc(-c3cc(C)c(OCC(=O)O)c(C)c3)nc12 [Example 2, {2,6-Dimethyl-4-[7-propyl-5-(3,3,3-trifluoropropoxy)oxazolo[5,4-d]pyrimidin-2-yl]phenoxy}acetic acid]
92%	Cc1cc(-c2nc3c(CC(C)C)nc(Oc4ccccc4F)nc3o2)cc(C)c1OCC(=O)O [Example 3, {4-[5-(2-Fluorophenoxy)-7-isobutyloxazolo[5,4-d]pyrimidin-2-yl]-2,6-dimethylphenoxy}acetic acid]
106%	Cc1cc(-c2nc3c(CC(C)C)nc(OCCC(F)(F)F)nc3o2)cc(C)c1OCC(=O)O [Example 4, {4-[7-Isobutyl-5-(3,3,3-trifluoropropoxy)oxazolo[5,4-d]pyrimidin-2-yl]-2,6-dimethylphenoxy}acetic acid]
86%	Cc1cc(-c2nc3c(CC(C)C)nc(Oc4cccc(Cl)c4)nc3o2)cc(C)c1OCC(=O)O [Example 5, {4-[5-(3-Chlorophenoxy)-7-isobutyloxazolo[5,4-d]pyrimidin-2-yl]-2,6-dimethylphenoxy}acetic acid]
118%	CCCc1nc(Oc2cccc(Cl)c2)nc2oc(-c3cc(C)c(OCC(=O)O)c(C)c3)nc12 [Example 6, {4-[5-(3-Chlorophenoxy)-7-propyloxazolo[5,4-d]pyrimidin-2-yl]-2,6-dimethylphenoxy}acetic acid]
38%	Cc1cc(-c2nc3c(CC(C)C)nc(Cc4ccc(Cl)cc4)nc3o2)cc(C)c1OCC(=O)O [Example 7, {4-[5-(4-Chlorobenzyl)-7-isobutyloxazolo[5,4-d]pyrimidin-2-yl]-2,6-dimethylphenoxy}acetic acid]
98%	Cc1cc(-c2nc3c(CC(C)C)nc(Cc4ccccc4)nc3o2)cc(C)c1OCC(=O)O [Example 8, [4-(5-Benzyl-7-isobutyloxazolo[5,4-d]pyrimidin-2-yl)-2,6-dimethylphenoxy]acetic acid]
90%	Cc1cc(-c2nc3c(C(C)C)nc(Cc4ccc(Cl)cc4)nc3o2)cc(C)c1OCC(=O)O [Example 9, {4-[5-(4-Chlorobenzyl)-7-isopropyloxazolo[5,4-d]pyrimidin-2-yl]-2,6-dimethylphenoxy}acetic acid]
